Our source for the Kb and melting point values is US10273217B2, “Triazole derivatives” (Hoffmann-La Roche Inc., priority 2015, dated 2019).

One data set addresses T1, human EAAT3 (Homo sapiens, UniProt P43005).
T1 construct: expressed in transfected cells
T1 sequence (P43005 1-524): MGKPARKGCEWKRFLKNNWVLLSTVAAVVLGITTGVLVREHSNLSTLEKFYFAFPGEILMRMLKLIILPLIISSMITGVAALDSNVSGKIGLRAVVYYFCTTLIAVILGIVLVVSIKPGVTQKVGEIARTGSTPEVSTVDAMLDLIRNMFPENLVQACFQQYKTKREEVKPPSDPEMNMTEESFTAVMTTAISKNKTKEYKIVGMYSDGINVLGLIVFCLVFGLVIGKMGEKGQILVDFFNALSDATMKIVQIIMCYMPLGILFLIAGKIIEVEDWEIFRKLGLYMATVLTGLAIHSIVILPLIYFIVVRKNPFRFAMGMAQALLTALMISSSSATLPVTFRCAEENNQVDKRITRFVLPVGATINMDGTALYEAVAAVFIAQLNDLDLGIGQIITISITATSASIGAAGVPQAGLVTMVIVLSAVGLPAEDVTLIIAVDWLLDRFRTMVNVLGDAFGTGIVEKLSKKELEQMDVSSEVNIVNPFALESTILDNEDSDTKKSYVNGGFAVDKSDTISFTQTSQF
Nature of the data set: FLIPR Membrane Potential (FMP) assay, antagonist potency at human EAAT3. In kind it is cell-based. The following applies: HEK-293 cells stably expressing human EAAT3; L-glutamate as agonist at EC80; Kb from IC50 by Cheng-Prusoff equation. The protocol: The FLIPR Membrane Potential (FMP) Assay
HEK-293 cells stably expressing human EAAT3 were seeded at 55 000 cells/well in growth medium (DMEM glutamate free (Invitrogen 11960-044), 1% Pen Strep (10 ml/l GIBCO BRL N°15140-023), 10% FCS non dialysed heat inactivated, 5 mg/l puromycin) in poly-D-lysine treated 96-well black microtiter plates with clear-bottom. After 24 h, the growth medium was removed and 100 μl/well of Krebs buffer (140 mM NaCl, 4.7 mM KCl, 2.5 mM CaCl2, 1.2 mM MgCl2, 11 mM HEPES, 10 mM D-glucose, pH=7.4) added. The cells were then loaded by adding 100 μl/well FMP assay dye (FLIPR Membrane Potential assay reagent, Molecular Devices). The 96-well plates were then incubated at 37° C. for 1 h. The depolarization of the cells will cause more dye to enter in the cells, where it will bind to intracellular proteins and lipids and cause an increase in the fluorescence signal. Antagonist potency at human EAAT3 was determined by using L-glutamate as agonist at a concentration which gives 80% of the maximum response. The antagonists were applied 15 min before the application of the agonist L-glutamate. The assays were performed at room temperature and measurements done by using a Fluorometric Imaging Plate Reader (FLIPR, Molecular Devices) and filter #2. Responses were measured as peak increase in fluorescence minus basal (i.e. fluorescence without addition of L-glutamate). Kb was determined using the Cheng-Prusoff equation Kb=IC50/[1+(A/EC50)], where IC50 is the concentration of the antagonist producing 50% inhibition, A is the concentration of the agonist against which the IC50 is being determined (at EC80) and EC50 is the concentration of the agonist producing 50% […].

By Kb is commonly meant the equilibrium dissociation constant of an antagonist, usually derived from a functional assay. Low values mean higher antagonist affinity, high ones lower antagonist affinity. What is called melting point is the temperature of the solid-liquid transition. The molecule `CC1(NC(=O)c2cc(-c3ccc(Cl)cc3)cc(-n3cnnc3CO)c2)CCS(=O)(=O)C1` (racemic) [Example 36, (RS)-3-(4-Chlorophenyl)-5-[3-(hydroxymethyl)-1,2,4-triazol-4-yl]-N-(3-methyl-1,1-dioxothiolan-3-yl)-benzamide] displayed a melting point of 161.5 °C. This molecule also yielded a Kb on human EAAT3 of 1570 nM.

In turn, `CCC(C)(C)NC(=O)c1cc(-c2ccc(F)cc2)cc(-n2cnnc2)c1` [Example 1, 3-(4-Fluorophenyl)-N-(2-methylbutan-2-yl)-5-(1,2,4-triazol-4-yl)-benzamide] had a melting point of 212 °C. Further, at human EAAT3, the Kb worked out at 88 nM.

`CC(C)(C)NC(=O)c1cc(-c2ccc(F)cc2)cc(-n2cnnc2)c1` [Example 2, N-tert-Butyl-3-(4-fluorophenyl)-5-(1,2,4-triazol-4-yl)-benzamide] returned a melting point of 204 °C. This molecule gave a Kb at human EAAT3 of 290 nM.

`CC(C)(NC(=O)c1cc(-c2ccc(F)cc2)cc(-n2cnnc2)c1)C1CC1` [Example 3, N-(2-Cyclopropylpropan-2-yl)-3-(4-fluorophenyl)-5-(1,2,4-triazol-4-yl)-benzamide]: the melting point is 135.5 °C. In addition, the Kb on human EAAT3 stood at 390 nM.

The molecule `CC(C)(NC(=O)c1cc(-c2ccc(F)cc2)cc(-n2cnnc2)c1)C(F)(F)F` [Example 4, 3-(4-Fluorophenyl)-5-(1,2,4-triazol-4-yl)-N-(1,1,1-trifluoro-2-methylpropan-2-yl)-benzamide] returned a melting point of 147 °C. The same molecule showed an antagonist equilibrium constant (Kb) on human EAAT3 of 250 nM.

Molecule `Cc1nncn1-c1cc(C(=O)NC(C)(C)C)cc(-c2ccc(F)cc2)c1` [Example 5, N-tert-Butyl-3-(4-fluorophenyl)-5-(3-methyl-1,2,4-triazol-4-yl)-benzamide] displayed a melting point of 235.5 °C. Moreover, on human EAAT3, the Kb is 160 nM.

As to `Cc1nncn1-c1cc(C(=O)NC(C)(C)C)cc(-c2ccc(Cl)cc2)c1` [Example 6, N-tert-Butyl-3-(4-chlorophenyl)-5-(3-methyl-1,2,4-triazol-4-yl)-benzamide], the melting point came out at 241 °C. The Kb at human EAAT3 came out at 76 nM.

`Cc1nncn1-c1cc(C(=O)NC(C)(C)C)cc(-c2ccc(C(F)(F)F)cc2)c1` [Example 7, N-tert-Butyl-3-(3-methyl-1,2,4-triazol-4-yl)-5-[4-(trifluoromethyl)-phenyl]-benzamide] registered a melting point of 225.5 °C. In addition, at human EAAT3, the Kb was found to be 130 nM.

In the case of `CC(C)(C)NC(=O)c1cc(-c2ccc(F)cc2)cc(-n2cnnc2C(C)(C)C)c1` [Example 8, N-tert-Butyl-3-(3-tert-butyl-1,2,4-triazol-4-yl)-5-(4-fluorophenyl)-benzamide], the melting point was 279 °C. For the same molecule, at human EAAT3, the antagonist equilibrium constant (Kb) was 190 nM.

`CC(C)(C)NC(=O)c1cc(-c2ccc(Cl)cc2)cc(-n2cnnc2C(C)(C)C)c1` [Example 9, N-tert-Butyl-3-(3-tert-butyl-1,2,4-triazol-4-yl)-5-(4-chlorophenyl)-benzamide] registered a melting point of 292.5 °C. The molecule also displayed a Kb on human EAAT3 of 180 nM.

On to `CC(C)(C)NC(=O)c1cc(-c2ccc(C(F)(F)F)cc2)cc(-n2cnnc2C(C)(C)C)c1` [Example 10, N-tert-Butyl-3-(3-tert-butyl-1,2,4-triazol-4-yl)-5-[4-(trifluoromethyl)-phenyl]-benzamide], for which the melting point amounted to 280.5 °C. Moreover, the Kb at human EAAT3 came out at 160 nM.

`CC(C)(C)c1nncn1-c1cc(C(=O)NC(C)(C)C2CC2)cc(-c2ccc(C(F)(F)F)cc2)c1` [Example 11, 3-(3-tert-Butyl-1,2,4-triazol-4-yl)-N-(2-cyclopropylpropan-2-yl)-5-[4-(trifluoromethyl)-phenyl]-benzamide] returned a melting point of 242.5 °C. In addition, the Kb at human EAAT3 was 180 nM.

Molecule `CC(C)(C)c1nncn1-c1cc(C(=O)NC(C)(C)C2CC2)cc(-c2ccc(F)cc2)c1` [Example 12, 3-(3-tert-Butyl-1,2,4-triazol-4-yl)-N-(2-cyclopropylpropan-2-yl)-5-(4-fluorophenyl)-benzamide] returned a melting point of 111 °C. Moreover, at human EAAT3, the Kb came to 150 nM.

Take `CC(C)(C)c1nncn1-c1cc(C(=O)NC(C)(C)C2CC2)cc(-c2ccc(Cl)cc2)c1` [Example 13, 3-(3-tert-Butyl-1,2,4-triazol-4-yl)-5-(4-chlorophenyl)-N-(2-cyclopropylpropan-2-yl)-benzamide]: the melting point was 136.5 °C. At human EAAT3, the Kb was determined as 290 nM.

Regarding `CC(C)c1nncn1-c1cc(C(=O)NC(C)(C)C)cc(-c2ccc(F)cc2)c1` [Example 14, N-tert-Butyl-3-(4-fluorophenyl)-5-(3-propan-2-yl-1,2,4-triazol-4-yl)-benzamide], the melting point was determined as 240.5 °C. This molecule also showed an antagonist equilibrium constant (Kb) at human EAAT3 of 75 nM.

`CC(C)c1nncn1-c1cc(C(=O)NC(C)(C)C)cc(-c2ccc(Cl)cc2)c1` [Example 15, N-tert-Butyl-3-(4-chlorophenyl)-5-(3-propan-2-yl-1,2,4-triazol-4-yl)-benzamide]: the melting point is 239.5 °C. Also, the antagonist equilibrium constant (Kb) on human EAAT3 is 75 nM.

As for `CC(C)c1nncn1-c1cc(C(=O)NC(C)(C)C2CC2)cc(-c2ccc(F)cc2)c1` [Example 16, N-(2-Cyclopropylpropan-2-yl)-3-(4-fluorophenyl)-5-(3-propan-2-yl-1,2,4-triazol-4-yl)-benzamide], the melting point was 101 °C. The molecule further came in with a Kb at human EAAT3 of 100 nM.

With `CC(C)c1nncn1-c1cc(C(=O)NC(C)(C)C2CC2)cc(-c2ccc(Cl)cc2)c1` [Example 17, 3-(4-Chlorophenyl)-N-(2-cyclopropyl-propan-2-yl)-5-(3-propan-2-yl-1,2,4-triazol-4-yl)-benzamide], the melting point worked out at 105 °C. The molecule further came in with a Kb at human EAAT3 of 190 nM.

Regarding `CC(C)c1nncn1-c1cc(C(=O)NC(C)(C)C)cc(-c2ccc(C(F)(F)F)cc2)c1` [Example 18, N-tert-Butyl-3-(3-propan-2-yl-1,2,4-triazol-4-yl)-5-[4-(trifluoromethyl)-phenyl]-benzamide], the melting point was 126 °C. This molecule registered a Kb at human EAAT3 of 130 nM.

With `CC(C)c1nncn1-c1cc(C(=O)NC(C)(C)C2CC2)cc(-c2ccc(C(F)(F)F)cc2)c1` [Example 19, N-(2-Cyclopropyl-propan-2-yl)-3-(3-propan-2-yl-1,2,4-triazol-4-yl)-5-[4-(trifluoromethyl)-phenyl]-benzamide], the melting point was 100 °C. The Kb at human EAAT3 turned out to be 220 nM.

As to `CC(C)c1nncn1-c1cc(C(=O)NC(C)(C)CO)cc(-c2ccc(F)cc2)c1` [Example 20, 3-(4-Fluorophenyl)-N-(1-hydroxy-2-methylpropan-2-yl)-5-(3-propan-2-yl-1,2,4-triazol-4-yl)-benzamide], the melting point turned out to be 171.5 °C. Further, the Kb at human EAAT3 is 390 nM.

`CC(C)c1nncn1-c1cc(C(=O)NC(C)(C)CO)cc(-c2ccc(Cl)cc2)c1` [Example 21, 3-(4-Chlorophenyl)-N-(1-hydroxy-2-methylpropan-2-yl)-5-(3-propan-2-yl-1,2,4-triazol-4-yl)-benzamide] registered a melting point of 180 °C. The molecule further showed a Kb at human EAAT3 of 230 nM.

`CC(C)c1nncn1-c1cc(C(=O)NC(C)(C)CO)cc(-c2ccc(C(F)(F)F)cc2)c1` [Example 22, N-(1-hydroxy-2-methylpropan-2-yl)-3-(3-propan-2-yl-1,2,4-triazol-4-yl)-5-[4-(trifluoromethyl)-phenyl]-benzamide]: the melting point was 214 °C. At human EAAT3, the Kb came out at 330 nM.

With `CCC(C)(C)NC(=O)c1cc(-c2ccc(C(F)(F)F)cc2)cc(-n2cnnc2C(C)C)c1` [Example 23, N-(2-Methylbutan-2-yl)-3-(3-propan-2-yl-1,2,4-triazol-4-yl)-5-[4-(trifluoromethyl)-phenyl]-benzamide], the melting point is 104 °C. The molecule further came in with a Kb at human EAAT3 of 94 nM.

`CCC(C)(C)NC(=O)c1cc(-c2ccc(F)cc2)cc(-n2cnnc2C(C)C)c1` [Example 24, 3-(4-Fluorophenyl)-N-(2-methylbutan-2-yl)-5-(3-propan-2-yl-1,2,4-triazol-4-yl)-benzamide] came in with a melting point of 95 °C. For the same molecule, the antagonist equilibrium constant (Kb) on human EAAT3 was found to be 54 nM.
